Experimental findings from patent US6784201B2, “Benzothiepines having activity as inhibitors of ileal bile acid transport and taurocholate uptake” (G.D. Searle & Company, priority 1994, dated 2004) are described below.

pIC50: −log10 of the molar value.

The first assay addresses T1, human IBAT (Homo sapiens, UniProt Q12908).
T1 construct: expressed in transfected cells; host or cells: Baby hamster kidney (BHK) cells, clone H14
T1 sequence (Q12908 1-348): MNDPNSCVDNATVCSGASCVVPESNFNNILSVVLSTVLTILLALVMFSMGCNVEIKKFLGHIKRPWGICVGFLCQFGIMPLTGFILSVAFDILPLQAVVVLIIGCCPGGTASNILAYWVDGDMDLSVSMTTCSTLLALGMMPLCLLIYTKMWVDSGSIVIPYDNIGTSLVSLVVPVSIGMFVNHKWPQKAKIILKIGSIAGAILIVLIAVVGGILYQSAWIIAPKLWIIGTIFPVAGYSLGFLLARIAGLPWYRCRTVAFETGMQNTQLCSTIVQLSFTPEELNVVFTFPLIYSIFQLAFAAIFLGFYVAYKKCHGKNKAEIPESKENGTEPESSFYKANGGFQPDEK
As to the kind of experiment: In vitro assay of IBAT-mediated uptake of [14C]-taurocholate (TC) in H14 cells. The conditions noted are these: 50 μM. Format: cell-based. The protocol: In Vitro Assay of Compounds that Inhibit IBAT-Mediated Uptake of [^14C]-Taurocholate (TC) in H14 Cells
Baby hamster kidney cells (BHK) transfected with the cDNA of human IBAT (H14 cells) are seeded at 60,000 cells/well in 96 well Top-Count tissue culture plates for assays run within in 24 hours of seeding, 30,000 cells/well for assays run within 48 hours, and 10,000 cells/well for assays run within 72 hours.
On the day of assay, the cell monolayer is gently washed once with 100 μl assay buffer (Dulbecco's Modified Eagle's medium with 4.5 g/L glucose+0.2% (w/v) fatty acid free bovine serum albumin-(FAF)BSA). To each well 50 μl of a two-fold concentrate of test compound in assay buffer is added along with 50 μl of 6 μM [^14C]-taurocholate in assay buffer (final concentration of 3 μM [^14C]-taurocholate). The cell culture plates are incubated 2 hours at 37° C. prior to gently washing each well twice with 100 μl 4° C. Dulbecco's phosphate-buffered saline (PBS) containing 0.2% (w/v) (FAF)BSA. The wells are then gently washed once with 100 μl 4° C. PBS without (FAF)BSA. To each 200 μl of liquid scintillation counting fluid is added, the plates are heat sealed and shaken for 30 minutes at room temperature prior to measuring the amount of radioactivity in each well on a Packard Top-Count instrument.
“8b-Phenyl-1a,2,3,8b-tetrahydrospiro(benzothiepino[4,5-b]oxirene-2,1′-cyclohexane)-4,4-dioxide [Example 58]”: the “In vitro % Inhibition of TC Uptake” value came to 88%.

The same assay, now with this note: 100 uM.
Take `CCCCC1(CC)CS(=O)(=O)c2ccccc2C(Sc2ccccc2)C1O` (single isomer, unassigned) [Example 21b, 3-Butyl-3-ethyl-4-hydroxy-5-phenylthio-2,3,4,5-tetrahydro-benzothiepine-1,1-dioxide]: the “In vitro % Inhibition of TC Uptake @ 100 uM” value is 45%. The same measure, in the same setting: the result for `CCCCC1(CC)CS(=O)(=O)c2ccccc2C(Sc2ccccc2)C1O` (single isomer, unassigned) [Example 21c, 3-Butyl-3-ethyl-4-hydroxy-5-phenylthio-2,3,4,5-tetrahydro-benzothiepine-1,1-dioxide] reads 52%.

Staying with this assay, now noted: 100 uM; read-out: In vitro % Inhibition of TC Uptake @ 100 uM.
The term inhibition denotes how much of the control response was suppressed. `CCCC[C@]1(CC)CSc2ccccc2[C@H](c2ccccc2)C1=O` (relative stereo) [Example 4a, cis-3-Butyl-3-ethyl-5-phenyl-2,3-dihydrobenzothiepin-(5H)4-one]: the inhibition at 100 µM amounted to 3%. Take `CCCC[C@]1(CC)CSc2ccccc2[C@@H](c2ccccc2)C1=O` (relative stereo) [Example 4b, trans-3-Butyl-3-ethyl-5-phenyl-2,3-dihydro-benzothiepin-(5H)4-one]: the inhibition at 100 µM is 9%. Same read-out and setting: then `CCCC[C@]1(CC)CS(=O)(=O)c2ccccc2[C@H](c2ccccc2)C1=O` (relative stereo) [Example 5a, cis-3-Butyl-3-ethyl-5-phenyl-2,3-dihydrobenzothiepin-(5H) 4-one-1,1-dioxide], with 34%; and `CCCCC1(CC)C=C(c2ccccc2)c2ccccc2SC1` (stereo not shown) [Example 3, 3-Butyl-3-ethyl-5-phenyl-2,3-dihydrobenzothiepine], with 0%.

The assay is the same for the next values; noted with them: H14 cells, Table 5; read-out: IC50 uM (In vitro Taurocholate Cell Uptake).
By IC50 is commonly meant the concentration that inhibits the measured activity by half. Consider `O=S1(=O)CC2(CCCCC2)[C@@H](O)[C@H](c2ccccc2)c2ccccc21` (relative stereo) [Example 59, trans-4-Hydroxy-5-phenyl-2,3,4,5-tetrahydro spiro(benzothiepine-3,1′-cyclohexane)-1,1-dioxide], for which the half-inhibitory concentration (IC50) is 70 µM. The same measure, in the same setting: then `CCCC[C@]1(CC)CS(=O)(=O)c2ccccc2[C@@H](c2ccccc2)[C@@H]1O` [Example 6a, (3α,4α,5β) 3-Butyl-3-ethyl-4-hydroxy-5-phenyl-2,3,4,5-tetrahydrobenzothiepine-1,1-dioxide], with 5 µM.

The assay is the same for the next values; noted with them: Human TC IC50.
The term pIC50 denotes −log10 of the IC50, conventionally taken in molar units. In turn, `CCCCC1(CC)CS(=O)(=O)c2ccc(N(C)C)cc2C(c2ccccc2)C1O` (single isomer, unassigned) [Example 1259] gave a negative logarithm of the IC50 (pIC50) of 4.78. Still for that read-out and setting: then `CCCCC1(CC)CS(=O)(=O)c2ccc(N(C)C)cc2C(c2ccccc2)C1O` (single isomer, unassigned) [Example 1300], with 6.00.

The assay is the same for the next values; noted with them: read-out: Human TC IC50.
In the case of `CCCCC1(CC)CS(=O)(=O)c2ccc(NC(=O)OCc3ccccc3)cc2C(c2ccc(OC)cc2)C1O` (single isomer, unassigned) [Example 115], the negative-log IC50 (pIC50) was 5.10. Turning to `CCCCC1(CC)CS(=O)(=O)c2ccc(NC(=O)OCc3ccccc3)cc2C(c2ccc(OC)cc2)C1O` (single isomer, unassigned) [Example 116], the negative-log IC50 (pIC50) is 6.52. On the same count and under the same terms, the result for `CCCCC1(CC)CS(=O)(=O)c2ccc(N)cc2C(c2ccccc2)C1O` (single isomer, unassigned) [Example 121] reads 7.17; that for `CCCCC1(CC)CS(=O)(=O)c2ccc(N)cc2C(c2ccccc2)C1O` (single isomer, unassigned) [Example 122], 5.97. With `CCCCC1(CC)CS(=O)(=O)c2ccc(N)cc2C(c2ccc(F)cc2)C1O` (single isomer, unassigned) [Example 127], the negative-log IC50 (pIC50) was 6.26.

Take `CCCCC1(CC)CS(=O)(=O)c2ccc(N)cc2C(c2ccc(F)cc2)C1O` (single isomer, unassigned) [Example 129]: the pIC50 was 7.46.

On to `CCCCC1(CC)CS(=O)(=O)c2ccc(SC)cc2C(c2cccc(OC)c2)C1O` (single isomer, unassigned) [Example 142], for which the pIC50 was 6.30.

On to `CCCCC1(CC)CS(=O)(=O)c2ccc(SC)cc2C(c2cccc(OC)c2)C1O` (single isomer, unassigned) [Example 143], for which the pIC50 was 7.52. Still for that read-out and setting: the result for `CCCCC1(CC)CS(=O)(=O)c2ccc(OC)cc2C(c2cccc(OC)c2)C1O` (single isomer, unassigned) [Example 262] reads 7.15; that for `CCCCC1(CC)CS(=O)(=O)c2ccc(OC)cc2C(c2cccc(OC)c2)C1O` (single isomer, unassigned) [Example 263], 6.15; that for `CCCCC1(CC)CS(=O)(=O)c2ccc(OC)cc2C(c2cccc(C(F)(F)F)c2)C1O` (single isomer, unassigned) [Example 264], 6.70. Same read-out and setting: the result for `CCCCC1(CC)CS(=O)(=O)c2ccc(OC)cc2C(c2cccc(C(F)(F)F)c2)C1O` (single isomer, unassigned) [Example 265] reads 5.70.

Take `CCCCC1(CC)CS(=O)(=O)c2ccc(Br)cc2C(c2cccc(OC)c2)C1O` (single isomer, unassigned) [Example 271]: the pIC50 was 7.15. The same measure, in the same setting: then `CCCCC1(CC)CS(=O)(=O)c2ccc(Br)cc2C(c2cccc(OC)c2)C1O` (single isomer, unassigned) [Example 272], with 6.15; and `CCCCC1(CC)CS(=O)(=O)c2ccc(F)cc2C(c2ccc(F)cc2)C1O` (single isomer, unassigned) [Example 273], with 5.72. On the same count and under the same terms, then `CCCCC1(CC)CS(=O)(=O)c2ccc(F)cc2C(c2ccc(F)cc2)C1O` (single isomer, unassigned) [Example 274], with 6.74; and `CCCCC1(CC)CS(=O)(=O)c2ccc(C)cc2C(c2ccc(F)cc2)C1O` (single isomer, unassigned) [Example 282], with 7.68; and `CCCCC1(CC)CS(=O)(=O)c2ccc(C)cc2C(c2ccc(F)cc2)C1O` (single isomer, unassigned) [Example 283], with 6.46. The same measure, in the same setting: then `CCCCC1(CCCC)CS(=O)(=O)c2c(cccc2N(C)C)C(c2ccsc2)C1O` (single isomer, unassigned) [Example 1067], with 8.40; and `CCCCC1(CC)CS(=O)(=O)c2ccc(N(C)C)cc2C(c2ccc(O)cc2)C1O` (single isomer, unassigned) [Example 1078], with 8.35. For the compound `CCCCC1(CC)CS(=O)(=O)c2ccc(N(C)C)cc2C(c2cccc(C)c2)C1O` (single isomer, unassigned) [Example 1116], the negative-log IC50 (pIC50) was 8.03. Same read-out and setting: the result for `CCCCC1(CCCC)CS(=O)(=O)c2ccc(N(C)C)cc2C(c2ccc(OC)c(F)c2)C1O` (single isomer, unassigned) [Example 1143] reads 7.57; that for `CCCCC1(CC)CS(=O)(=O)c2ccc(N(C)C)cc2C(c2ccc(OC)c(F)c2)C1O` (single isomer, unassigned) [Example 1151], 7.51.

For `CCCCC1(CCCC)CS(=O)(=O)c2ccc(N(C)C)cc2C(c2ccccc2)C1O` (single isomer, unassigned) [Example 1200], the pIC50 was 5.21. Still for that read-out and setting: then `CCCCC1(CCCC)CS(=O)(=O)c2c(cccc2N2CCOCC2)C(c2ccc(OC)cc2)C1O` (single isomer, unassigned) [Example 1212], with 6.41; and `CCCCC1(CC)CS(=O)(=O)c2ccc(N(C)C)cc2C(c2ccc(OC)c(F)c2)C1O` (single isomer, unassigned) [Example 1213], with 5.77. On to `CCCCC1(CC)CS(=O)(=O)c2ccc(N(C)C)cc2C(c2cccc(C)c2)C1O` (single isomer, unassigned) [Example 1225], for which the pIC50 was 6.92. For `CCCCC1(CCCC)CS(=O)(=O)c2c(cccc2N(C)C)C(c2ccsc2)C1O` (single isomer, unassigned) [Example 1232], the pIC50 is 5.92.

As for `CCCCC1(CC)CS(=O)(=O)c2ccc(N(C)C)cc2C(c2ccc(O)cc2)C1O` (single isomer, unassigned) [Example 1287], the negative logarithm of the IC50 (pIC50) is 7.15. The same measure, in the same setting: the result for `CCCCC1(CCCC)CS(=O)(=O)c2c(cccc2N2CCOCC2)C(c2ccc(OC)cc2)C1O` (single isomer, unassigned) [Example 1307] reads 5.51; that for `CCCCC1(CC)CS(=O)(=O)c2ccc(NO)cc2C(c2ccccc2)C1O` (single isomer, unassigned) [Example 1311], 5.49; that for `CCCCC1(CC)CS(=O)(=O)c2ccc(NO)cc2C(c2ccccc2)C1O` (single isomer, unassigned) [Example 1314], 6.59.
